From PMC11345829, “Discovery of Potent Isoquinolinequinone N-Oxides to Overcome Cancer Multidrug Resistance” (Journal of Medicinal Chemistry, 2024)

What was measured:
NCI-H322 = assay: NCI60 five-dose GI50 (NCI data); type: cell-based; details: Homo sapiens, SI Table S20
Description: The concentration−response curve generated enables the determination of three criteria, GI50 (drug concentration at which 50% of cell growth is inhibited), total growth inhibition (TGI) and LC50 (drug concentration at which 50% of tumor cells are killed) which can be used to compare effectiveness against any compound tested in the screen since its inception.
S2.1 NCI Screening Assay Experimental details
NCI Screening Assay Experimental: Cancer cell growth assays (NCI60 screening) 5,6 One-dose study: Tested compounds were initially solubilised in DMSO, diluted into RPMI 1640 and 5% fetal bovine serum/L-glutamine, and added to 96-well plates containing cell lines previously cultured for 24 h. After 48 h incubation, the media were removed, and the cells were fixed and stained with sulforhodamine B to determine overall percent growth/ total protein content. Unbound dye was removed with five washes of 1% acetic acid, and the plates were allowed to air dry. The dye was then resolubilised in Tris buffer, and the colorimetric absorbance was measured (515 nm). Growth inhibition was measured relative to the response generated from proliferating cells cultured under identical conditions for 48 h. Data from one-dose experiments pertains to the percentage growth at […]
Five-dose study: Serial 5 × 10-fold dilution from an initial DMSO stock solution was performed, prior to incubation at each individual concentration (10 nM, 100 nM, 1 μM, 10 μM and 100 μM). Using seven absorbance measurements (time zero (Tz), control growth (C), and test growth in the presence of drug at the five concentration levels (Ti)), the percentage growth was calculated at each of the drug concentrations levels. Percentage growth inhibition was calculated as: [(Ti − Tz)/(C − Tz)] × 100 for concentrations for which Ti ≥ Tz, [(Ti − Tz)/Tz] × 100 for concentrations for which Ti < Tz. Three dose response parameters were calculated for each experimental agent. […]
was calculated from [(Ti − Tz)/(C − Tz)] × 100 = 50, which is the drug concentration resulting in a 50% reduction in the net protein increase (as measured by sulforhodamine B staining) in control cells during the drug incubation. The drug concentration resulting in total growth inhibition (TGI) was calculated from Ti = Tz. The LC50 (concentration of drug resulting in a 50% reduction in the measured protein at the end of the drug treatment as compared to that at the beginning) indicating a net loss of cells following treatment was calculated from [(Ti − Tz)/Tz] × 100 = −50. Values were calculated for each of these three parameters if the level of activity was reached; however, if the effect was not reached or was exceeded, the value for that parameter was expressed as greater or less than the maximum or minimum concentration tested.

NCI-H460 cells = assay: Alkaline Comet assay (DNA damage); type: cell-based, human; details: 48 h; 2 × GI50; preliminary, data not shown
Protocol: Hydrogen peroxide (Sigma-Aldrich) was used as a positive control (50 μM). Harvested cells were resuspended in 0.5% low melting point agarose (Thermo Fisher Scientific) and poured onto slides precoated with 1% normal melting point agarose (Sigma-Aldrich). Cells were then lysed with ice-cold lysis buffer [100 mM Na2EDTA (Sigma-Aldrich), […] (Sigma-Aldrich), 10 mM Tris-Base (Sigma-Aldrich), pH 10.0, 1% and Triton X-100 (Sigma-Aldrich)) for 2 h in the dark at 4 °C. Then, after two washes with distilled water, slides were placed on an electrophoresis tank filled with electrophoresis buffer [300 mM NaOH (Sigma-Aldrich), 1 mM Na2EDTA; pH 13.0] and incubated for 40 min to allow DNA to unwind. Electrophoresis was carried out for 20 min at 32 V. Then slides were immersed twice in pure ethanol and allowed to dry at RT. Slides were stained with SyberGold staining solution (Invitrogen) in Tris-EDTA buffer [10 mM Tris-HCl (Sigma-Aldrich) and 1 mM EDTA (Sigma-Aldrich); pH 7.5] for 30 min with agitation and protected from light. In the end, slides washed and dried were visualized on a Zeiss Axio Imager Z1 microscope, equipped with the Axiovision 4.9 software.

[1] = tested on: NCI-H460, NCI-H460/R, DLD1 and DLD1-TxR spheroids; assay: Spheroid morphology (AnaSP image analysis); type: cell-based, human; details: 48 h; GI50 and 2 × GI50
Protocol: Spheroid formation was conducted in 12-series agarose 3D Petri Dish micromolds (MicroTissues Technology, MicroTissues Inc., Sigma-Aldrich). The agarose micromolds were prepared using 1% agarose in a 0.9% NaCl solution and then placed in 12-well plates and equilibrated with RPMI supplemented with 10% FBS for at least 2 h before cell seeding. Cell suspensions corresponding to 500 cells per spheroid of the NSCLC cell lines (NCI-H460 and NCI-H460/R), and 1000 cells per spheroid of the colorectal cancer cell lines (DLD1 and DLD1-TxR) were seeded in the corresponding micromolds. The choice of cell seeding concentration was based on a previous optimization assay (data not shown), ensuring that at the end of the assay the spheroids would have a size of around 400 μm. A 20 min incubation period was used for cells to settle into the micromolds and additional medium was finally added to the wells. Spheroid formation was monitored with the Leica DMi1 microscope. […] At the end of the treatment, images from at least 8 different spheroids per condition were captured on the Leica Dmi1 microscope, and posteriorly analyzed with the automated open-source software AnaSP.[82] Spheroid parameters, such as equivalent diameter, circularity, and compactness, were calculated.
S3.6 Effect of 25 on spheroids from NSCLC and colorectal cancer (Figure S67) […]
2GI50 concentrations previously determined in a 2D setting. […]

COC(=O)c1c2c(c[n+]([O-])c1C)C(=O)C=C(NCc1ccccc1)C2=O [Compound 25]
GI50 (NCI-H322): 174 nM | DNA damage (NCI-H460 cells): did not increase DNA damage | spheroid morphological properties (diameter, compactness, circularity) [1]: did not display statistical differences in the AnaSP-calculated morphological properties
